The text below walks through data of US9079861B2, “Cyclic urea inhibitors of 11β-hydroxysteroid dehydrogenase 1” (Vitae Pharmaceuticals, Inc., priority 2007, dated 2015).

The assay concerns the target T1, human 11β-HSD1 (Homo sapiens, UniProt P28845).
T1 construct: expressed in transfected cells; host or cells: CHO cells (microsomes)
The assay can be described thus: Biological Test Example 1: inhibition of microsomal preparation of 11β-HSD1 (SPA). Type of assay: biochemical. Particulars: for IC50: microsomes from CHO cells overexpressing human 11β-HSD1; for inhibition at 0.1 µM: read-out: Average % inhibition at 100 nM; for Average % inhibition at 100 nM: 0.1 µM. The procedure: The inhibition of microsomal preparation of 11β-HSD1 by compounds of the invention was measured essentially as previously described (K. Solly, S. S. Mundt, H. J. Zokian, G. J. Ding, A. Hermanowski-Vosatka, B. Strulovici, and W. Zheng, High-Throughput Screening of 11-Beta-Hydroxysteroid Dehydrogenase Type 1 in Scintillation Proximity Assay Format. Assay Drug Dev Technol 3 (2005) 377-384). All reactions were carried out at room temperature in 96 well clear flexible PET Microbeta plates (PerkinElmer). The assay begins by dispensing 49 μl of substrate solution (50 mM HEPES, pH 7.4, 100 mM KCl, 5 mM NaCl, 2 mM MgCl2, 2 mM NADPH and 160 nM [^3H]cortisone (1 Ci/mmol)) and mixing in 1 μL of the test compounds in DMSO previously diluted in half-log increments (8 points) starting at 0.1 mM. After a 10 minute pre-incubation, 50 μL of enzyme solution containing microsomes isolated from CHO cells overexpressing human 11β-HSD1 (10-20 μg/ml of total protein) was added, and the plates were incubated for 90 minutes at room temperature. The reaction was stopped by adding 50 μl of the SPA beads suspension containing 10 μM 18β-glycyrrhetinic acid, 5 mg/ml protein A coated YSi SPA beads (GE Healthcare) and 3.3 μg/ml of anti-cortisol antibody (East Coast Biologics) in Superblock buffer (Bio-Rad). The plates were shaken for 120 minutes at room temperature, and the SPA signal corresponding to [^3H]cortisol was measured on a Microbeta plate reader.

One may read the IC50 as the point on the concentration scale where inhibition reaches its midpoint. What is called inhibition is the drop in the measured response relative to a control, in per cent.

Where two headings read alike, the source gives them in different places.

T1 sequence (P28845 whole entry): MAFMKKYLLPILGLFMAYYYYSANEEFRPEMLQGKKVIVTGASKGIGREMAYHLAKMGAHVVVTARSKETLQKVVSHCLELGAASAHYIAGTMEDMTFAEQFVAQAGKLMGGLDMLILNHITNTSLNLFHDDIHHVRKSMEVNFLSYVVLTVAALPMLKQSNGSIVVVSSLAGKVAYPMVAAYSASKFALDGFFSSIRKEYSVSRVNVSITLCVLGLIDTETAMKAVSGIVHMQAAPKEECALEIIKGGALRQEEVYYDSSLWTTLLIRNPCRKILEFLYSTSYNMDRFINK

In the case of `C=CC[C@@]1(c2ccc(F)cc2)CCN([C@@H](C)c2ccc(Br)cc2)C(=O)N1` (single isomer, unassigned) [Example 2 Isomer 2], the inhibition at 0.1 µM came out at 69.5%. This molecule displayed an IC50 (IC50 Range) of under 100 nM.
Turning to `C=CC[C@]1(c2ccc(F)cc2)CCN([C@@H](C)c2ccc(Br)cc2)C(=O)N1C` (single isomer, unassigned) [Example 3 Isomer 1], the inhibition at 0.1 µM was 51.2%. In addition, the IC50 (read-out: IC50 Range) was under 100 nM.
On the same counts, the results for `C=CC[C@@]1(c2ccc(F)cc2)CCN([C@@H](C)c2ccc(Br)cc2)C(=O)N1C` (single isomer, unassigned) [Example 3 Isomer 2] are 60.5% and under 100 nM.
Regarding `C[C@@H](c1ccc(-c2ccc(F)cc2F)cc1)N1CC[C@](CCO)(c2ccc(F)cc2)NC1=O` (single isomer, unassigned) [Example 6 Isomer 1], the inhibition at 0.1 µM (at 100 nM) was determined as 97.2%. Besides, the 50% inhibitory concentration (IC50) (read-out: IC50 Range) was under 100 nM.
For `C[C@@H](c1ccc(-c2ccc(F)cc2F)cc1)N1CC[C@@](CCO)(c2ccc(F)cc2)NC1=O` (single isomer, unassigned) [Example 6 Isomer 2], the inhibition at 0.1 µM (at 100 nM) was found to be 47.7%. Also, where the note is “read-out: IC50 Range”, the IC50 is under 100 nM.
For `C[C@@H](c1ccc(-c2ccc(F)cc2F)cc1)N1CC[C@](CCCO)(c2ccc(F)cc2)NC1=O` (single isomer, unassigned) [Example 7 Isomer 1], where the note is “at 100 nM”, the inhibition at 0.1 µM was found to be 94.8%. Moreover, the half-inhibitory concentration (IC50) (read-out: IC50 Range) was under 100 nM.
Consider `C[C@@H](c1ccc(-c2ccc(F)cc2F)cc1)N1CC[C@@](CCCO)(c2ccc(F)cc2)NC1=O` (single isomer, unassigned) [Example 7 Isomer 2], for which the inhibition at 0.1 µM (at 100 nM) turned out to be 71%. Besides, for the setting “read-out: IC50 Range”, the IC50 was under 100 nM.
For `C[C@@H](c1ccc(-c2ccc(F)cc2F)cc1)N1CC[C@](CC(O)CO)(c2ccc(F)cc2)NC1=O` (single isomer, unassigned) [Example 8 Isomer 1], the inhibition at 0.1 µM (at 100 nM) came out at 96.3%. For the setting “read-out: IC50 Range”, the IC50 was under 100 nM.
For the molecule `C[C@@H](c1ccc(-c2ccc(F)cc2F)cc1)N1CC[C@](CC(O)CO)(c2ccc(F)cc2)NC1=O` (single isomer, unassigned) [Example 8 Isomer 2], the “Average % inhibition at 100 nM” value (at 100 nM) is on record as 94.8%. Further, the IC50 (read-out: IC50 Range) is under 100 nM.
As for `C[C@@H](c1ccc(-c2ccc(F)cc2)cc1)N1CC[C@](CC(O)CO)(c2ccc(F)cc2)NC1=O` (single isomer, unassigned) [Example 9 Isomer 1], the inhibition at 0.1 µM (at 100 nM) turned out to be 94.5%. Moreover, the IC50 (read-out: IC50 Range) is under 100 nM.
Take `C[C@@H](c1ccc(-c2ccc(F)cc2)cc1)N1CC[C@](CC(O)CO)(c2ccc(F)cc2)NC1=O` (single isomer, unassigned) [Example 9 Isomer 2]: the “Average % inhibition at 100 nM” value (at 100 nM) was 93.5%. Besides, the IC50 (read-out: IC50 Range) was under 100 nM.
`C[C@@H](c1ccc(-c2ccc(F)cc2)cc1)N1CC[C@@](CC(O)CO)(c2ccc(F)cc2)NC1=O` (single isomer, unassigned) [Example 9 Isomer 3]: the “Average % inhibition at 100 nM” value (at 100 nM) was 38.5%. Besides, where the note is “read-out: IC50 Range”, the half-maximal inhibitory concentration (IC50) is under 100 nM.
The corresponding values for `C[C@@H](c1ccc(-c2ccc(F)cc2)cc1)N1CC[C@@](CC(O)CO)(c2ccc(F)cc2)NC1=O` (single isomer, unassigned) [Example 9 Isomer 4] are 16.5% and over 100 nM.
Take `C[C@@H](c1ccc(-c2ccc(F)cc2)cc1)N1CC[C@](CCCO)(c2ccc(F)cc2)NC1=O` (single isomer, unassigned) [Example 10 Isomer 1]: the inhibition at 0.1 µM (at 100 nM) was determined as 102%. In addition, the IC50 (read-out: IC50 Range) was under 100 nM.
Turning to `C[C@@H](c1ccc(-c2ccc(F)cc2)cc1)N1CC[C@@](CCCO)(c2ccc(F)cc2)NC1=O` (single isomer, unassigned) [Example 10 Isomer 2], where the note is “at 100 nM”, the inhibition at 0.1 µM is 54.2%. Further, the IC50 (read-out: IC50 Range) was under 100 nM.
In the case of `C[C@@H](c1ccc(Br)cc1)N1CC[C@](CCCO)(c2ccc(F)cc2)N(C)C1=O` (single isomer, unassigned) [Example 11 Isomer 1], the inhibition at 0.1 µM (at 100 nM) is 64.4%. Under “read-out: IC50 Range”, the IC50 is under 100 nM.
The corresponding values for `C[C@@H](c1ccc(Br)cc1)N1CC[C@@](CCCO)(c2ccc(F)cc2)N(C)C1=O` (single isomer, unassigned) [Example 11 Isomer 2] are 26.1% and over 100 nM.
The corresponding values for `C[C@@H](c1ccc(-c2ccc(F)cc2)cc1)N1CC[C@](CCCO)(c2ccccc2)NC1=O` (single isomer, unassigned) [Example 14 Isomer 1] are 95.5% and under 100 nM.
The corresponding values for `C[C@@H](c1ccc(-c2ccc(F)cc2)cc1)N1CC[C@@](CCCO)(c2ccccc2)NC1=O` (single isomer, unassigned) [Example 14 Isomer 2] are 58% and under 100 nM.
Molecule `Cc1cccc(N2CC[C@](C)(c3ccccc3)NC2=O)c1` [Example 1, (R)-4-methyl-4-phenyl-1-m-tolyltetrahydropyrimidin-2(1H)-one] showed an IC50 (IC50 Range) of 100 to 1000 nM. For the same molecule, where the note is “read-out: Average % inhibition at 111.1 nM”, the inhibition at 0.1111 µM came out at 49.4%.
Consider `C[C@@H](c1ccc(Cl)cc1)N1CC[C@](CCO)(c2ccc(F)cc2)NC1=O` [Example 12, (S)-1-((S)-1-(4-chlorophenyl)ethyl)-4-(4-fluorophenyl)-4-(2-hydroxyethyl)tetrahydropyrimidin-2(1H)-one], for which the inhibition at 0.1 µM (at 100 nM) amounted to 96.9%. In addition, the half-inhibitory concentration (IC50) (read-out: IC50 Range) is under 100 nM.
On the same counts, the results for `C[C@@H](c1ccc(Cl)cc1)N1CC[C@](CCCO)(c2ccc(F)cc2)NC1=O` [Example 13, 1-((1S)-1-(4-chlorophenyl)ethyl)-4-(4-fluorophenyl)-4-(3-hydroxypropyl)tetrahydropyrimidin-2(1H)-one] are 96.1% and under 100 nM.
Take `C[C@@H](C1CCCCC1)N1CC[C@](CCCO)(c2ccccc2)NC1=O` [Example 15, (R)-1-((S)-1-cyclohexylethyl)-4-(3-hydroxypropyl)-4-phenyltetrahydropyrimidin-2(1H)-one]: the inhibition at 0.1 µM (at 100 nM) is 96.1%. The half-inhibitory concentration (IC50) (read-out: IC50 Range) is under 100 nM.
As for `COc1ccc([C@H](C)N2CC[C@](CCCO)(c3ccc(F)cc3)NC2=O)cc1` [Example 16, (R)-4-(4-fluorophenyl)-4-(3-hydroxypropyl)-1-((S)-1-(4-methoxyphenyl)ethyl)tetrahydropyrimidin-2(1H)-one], the inhibition at 0.1 µM (at 100 nM) was 96.1%. Moreover, under “read-out: IC50 Range”, the half-maximal inhibitory concentration (IC50) is under 100 nM.
With `COc1ccc([C@H](C)N2CC[C@](CCO)(c3ccc(F)cc3)NC2=O)cc1` [Example 17, (S)-4-(4-fluorophenyl)-4-(2-hydroxyethyl)-1-((S)-1-(4-methoxyphenyl)ethyl)tetrahydropyrimidin-2(1H)-one], under “at 100 nM”, the inhibition at 0.1 µM is 94.3%. Where the note is “read-out: IC50 Range”, the IC50 is under 100 nM.
As to `C[C@@H](c1ccc(Br)cc1)N1CC[C@](CCCO)(c2ccc(F)cc2)NC1=O` [Example 18, (R)-1-((S)-1-(4-bromophenyl)ethyl)-4-(4-fluorophenyl)-4-(3-hydroxypropyl)tetrahydropyrimidin-2(1H)-one], the inhibition at 0.1 µM (at 100 nM) was determined as 97.5%. For the same molecule, for the setting “read-out: IC50 Range”, the half-inhibitory concentration (IC50) is under 100 nM.
With `C[C@@H](c1ccc(Br)cc1)N1CC[C@](CCCNS(C)(=O)=O)(c2ccc(F)cc2)NC1=O` [Example 19, N-(3-((R)-1-((S)-1-(4-bromophenyl)ethyl)-4-(4-fluorophenyl)-2-oxohexahydropyrimidin-4-yl)propyl)methanesulfonamide], the inhibition at 0.1 µM came out at 96%. The IC50 (read-out: IC50 Range) is under 100 nM.
`C[C@@H](c1ccc(Br)cc1)N1CC[C@](CC(C)(C)O)(c2ccccc2)NC1=O` [Example 20, (S)-1-((S)-1-(4-bromophenyl)ethyl)-4-(2-hydroxy-2-methylpropyl)-4-phenyltetrahydropyrimidin-2(1H)-one]: the inhibition at 0.1 µM (at 100 nM) was found to be 94.4%. In addition, under “read-out: IC50 Range”, the IC50 is under 100 nM.
`C[C@@H](c1ccc(-c2ccn(C)c(=O)c2)cc1)N1CC[C@](CC(C)(C)O)(c2ccccc2)NC1=O` [Example 21, (S)-4-(2-hydroxy-2-methylpropyl)-1-((S)-1-(4-(1-methyl-2-oxo-1,2-dihydropyridin-4-yl)phenyl)ethyl)-4-phenyltetrahydropyrimidin-2(1H)-one]: the inhibition at 0.1 µM (at 100 nM) is 93.9%. The half-maximal inhibitory concentration (IC50) (read-out: IC50 Range) is under 100 nM.
In the case of `C[C@@H](C1CCCCC1)N1CC[C@](CCCO)(c2ccccc2)N(C)C1=O` [Example 22, (R)-1-((S)-1-cyclohexylethyl)-4-(3-hydroxypropyl)-3-methyl-4-phenyltetrahydropyrimidin-2(1H)-one], the inhibition at 0.1 µM (at 100 nM) worked out at 30%. Moreover, the IC50 (read-out: IC50 Range) is over 100 nM.
For the molecule `C[C@@H](c1ccc(Br)cc1)N1CC[C@](CC(C)(C)C#N)(c2ccccc2)NC1=O` [Example 23, 3-((R)-1-((S)-1-(4-bromophenyl)ethyl)-2-oxo-4-phenylhexahydropyrimidin-4-yl)-2,2-dimethylpropanenitrile], for the setting “at 100 nM”, the inhibition at 0.1 µM came out at 95.8%. The 50% inhibitory concentration (IC50) (read-out: IC50 Range) is under 100 nM.
